Measured values reported in ChEMBL document CHEMBL5724914, “Linking interpersonal differences in gut microbiota composition and drug biotransformation activity” (2024).

Legend:
[1] = human gut metagenome, 24 h, 2 µM
[2] = The drug is tested on WLS-310 corresponding to human gut metagenome with ENA study accession number: PRJEB37062 and ENA sample accession number: ERS12561785 for biotransformation under anaerobic condition. The drug concentrations were measured over 9 timepoints collected between 0 and 24 hours of incubation by liquid-chromatography-coupled mass spectrometry (LC–MS); details: 2 µM
[3] = The drug is tested on WLS-086 corresponding to human gut metagenome with ENA study accession number: PRJEB37062 and ENA sample accession number: ERS12561752 for biotransformation under anaerobic condition. The drug concentrations were measured over 9 timepoints collected between 0 and 24 hours of incubation by liquid-chromatography-coupled mass spectrometry (LC–MS); details: 2 µM
[4] = The drug is tested on Z-025 corresponding to rabbit gut metagenome with ENA study accession number: PRJEB37062 and ENA sample accession number: ERS12561824 for biotransformation under anaerobic condition. The drug concentrations were measured over 9 timepoints collected between 0 and 24 hours of incubation by liquid-chromatography-coupled mass spectrometry (LC–MS); details: 2 µM
[5] = The drug is tested on Z-030 corresponding to mouse gut metagenome with ENA study accession number: PRJEB37062 and ENA sample accession number: ERS12561829 for biotransformation under anaerobic condition. The drug concentrations were measured over 9 timepoints collected between 0 and 24 hours of incubation by liquid-chromatography-coupled mass spectrometry (LC–MS); details: 2 µM
[6] = human gut metagenome, 24 h, 2 µM; remark: listed apart in the source
[7] = human gut metagenome, 24 h, 2 µM; remark: listed apart in the source
[8] = The drug is tested on WLS-090 corresponding to human gut metagenome with ENA study accession number: PRJEB37062 and ENA sample accession number: ERS12561753 for biotransformation under anaerobic condition. The drug concentrations were measured over 9 timepoints collected between 0 and 24 hours of incubation by liquid-chromatography-coupled mass spectrometry (LC–MS); details: 2 µM
[9] = The drug is tested on WLS-098 corresponding to human gut metagenome with ENA study accession number: PRJEB37062 and ENA sample accession number: ERS12561754 for biotransformation under anaerobic condition. The drug concentrations were measured over 9 timepoints collected between 0 and 24 hours of incubation by liquid-chromatography-coupled mass spectrometry (LC–MS); details: 2 µM
[10] = The drug is tested on WLS-039 corresponding to human gut metagenome with ENA study accession number: PRJEB37062 and ENA sample accession number: ERS12561746 for biotransformation under anaerobic condition. The drug concentrations were measured over 9 timepoints collected between 0 and 24 hours of incubation by liquid-chromatography-coupled mass spectrometry (LC–MS); details: 2 µM
[11] = human gut metagenome, 24 h, 2 µM; remark: listed apart in the source
[12] = human gut metagenome, 24 h, 2 µM; remark: listed apart in the source
[13] = human gut metagenome, 24 h, 2 µM; remark: listed apart in the source
[14] = The drug is tested on WLS-006 corresponding to human gut metagenome with ENA study accession number: PRJEB37062 and ENA sample accession number: ERS12561741 for biotransformation under anaerobic condition. The drug concentrations were measured over 9 timepoints collected between 0 and 24 hours of incubation by liquid-chromatography-coupled mass spectrometry (LC–MS); details: 2 µM
[15] = The drug is tested on Z-016 corresponding to mouse gut metagenome with ENA study accession number: PRJEB37062 and ENA sample accession number: ERS12561815 for biotransformation under anaerobic condition. The drug concentrations were measured over 9 timepoints collected between 0 and 24 hours of incubation by liquid-chromatography-coupled mass spectrometry (LC–MS); details: 2 µM
[16] = The drug is tested on Z-005 corresponding to metagenome with ENA study accession number: PRJEB37062 and ENA sample accession number: ERS12561805 for biotransformation under anaerobic condition. The drug concentrations were measured over 9 timepoints collected between 0 and 24 hours of incubation by liquid-chromatography-coupled mass spectrometry (LC–MS); details: 2 µM
[17] = The drug is tested on Z-008 corresponding to metagenome with ENA study accession number: PRJEB37062 and ENA sample accession number: ERS12561808 for biotransformation under anaerobic condition. The drug concentrations were measured over 9 timepoints collected between 0 and 24 hours of incubation by liquid-chromatography-coupled mass spectrometry (LC–MS); details: 2 µM
[18] = The drug is tested on Z-004 corresponding to metagenome with ENA study accession number: PRJEB37062 and ENA sample accession number: ERS12561804 for biotransformation under anaerobic condition. The drug concentrations were measured over 9 timepoints collected between 0 and 24 hours of incubation by liquid-chromatography-coupled mass spectrometry (LC–MS); details: 2 µM
[19] = human gut metagenome, 24 h, 2 µM; remark: listed apart in the source
[20] = human gut metagenome, 24 h, 2 µM; remark: listed apart in the source
Note: call rule not given here.

SMILES	Bacterial Biotransformation [1]	Bacterial Biotransformation [2]	Bacterial Biotransformation [3]	Bacterial Biotransformation [4]	Bacterial Biotransformation [5]	Bacterial Biotransformation [6]	Bacterial Biotransformation [7]	Bacterial Biotransformation [8]	Bacterial Biotransformation [9]	Bacterial Biotransformation [10]	Bacterial Biotransformation [11]	Bacterial Biotransformation [12]	Bacterial Biotransformation [13]	Bacterial Biotransformation [14]	Bacterial Biotransformation [15]	Bacterial Biotransformation [16]	Bacterial Biotransformation [17]	Bacterial Biotransformation [18]	Bacterial Biotransformation [19]	Bacterial Biotransformation [20]
CC(=O)CC(c1ccccc1)c1c(O)c2ccccc2oc1=O (stereo not given) [WARFARIN]	Compound metabolized	Compound metabolized	Compound metabolized	Compound metabolized	Compound NOT metabolized	Compound metabolized	Compound metabolized	Compound metabolized	Compound metabolized	Compound NOT metabolized	Compound metabolized	Compound metabolized	Compound metabolized	Compound metabolized	Compound metabolized	Compound NOT metabolized	Compound NOT metabolized	Compound metabolized	Compound metabolized	Compound metabolized
Cc1ccc(-c2nc3ccc(C)cn3c2CC(=O)N(C)C)cc1 [ZOLPIDEM]	Compound NOT metabolized	Compound metabolized	Compound metabolized	Compound NOT metabolized	Compound NOT metabolized	Compound NOT metabolized	Compound NOT metabolized	Compound metabolized	Compound metabolized	Compound NOT metabolized	Compound NOT metabolized	Compound metabolized	Compound NOT metabolized	Compound NOT metabolized	Compound NOT metabolized	Compound NOT metabolized	Compound NOT metabolized	Compound NOT metabolized	Compound NOT metabolized	Compound metabolized
